From PubChem BioAssay AID1259407 (Chemical Carcinogenesis Research Information System (CCRIS), 2018)
Active and inactive are the calls of the source. No rule for the calls is given here.

System: CCRIS mutagenicity, Ames/micronucleus/aberration tests
Assay: CCRIS mutagenicity studies
[1] = Test System: AMES SALMONELLA TYPHIMURIUM, Strain/Indicator: TA98, Metabolic Activation: NONE, Method: PREINCUBATION
[2] = Test System: AMES SALMONELLA TYPHIMURIUM, Strain/Indicator: TA100, Metabolic Activation: NONE, Method: PREINCUBATION
[3] = Test System: AMES SALMONELLA TYPHIMURIUM, Strain/Indicator: TA1535, Metabolic Activation: NONE, Method: PREINCUBATION
[4] = Test System: AMES SALMONELLA TYPHIMURIUM, Strain/Indicator: TA1537, Metabolic Activation: NONE, Method: PREINCUBATION
[5] = Test System: AMES SALMONELLA TYPHIMURIUM, Strain/Indicator: TA100, Metabolic Activation: NONE, Method: STANDARD PLATE

COc1ccc(C(=O)c2ccccc2O)c(O)c1
mutagenic call (Test System: AMES SALMONELLA TYPHIMURIUM, Strain/Indicator: TA98, Metabolic Activation: HAMSTER, LIVER, S-9, AROCLOR 1254 (10%), Method: PREINCUBATION): inactive; negative | mutagenic call [1]: inactive; negative | mutagenic call (Test System: AMES SALMONELLA TYPHIMURIUM, Strain/Indicator: TA98, Metabolic Activation: RAT, LIVER, S-9, AROCLOR 1254 (10%), Method: PREINCUBATION): inactive; negative | mutagenic call (Test System: AMES SALMONELLA TYPHIMURIUM, Strain/Indicator: TA100, Metabolic Activation: HAMSTER, LIVER, S-9, AROCLOR 1254 (10%), Method: PREINCUBATION): inactive; negative | mutagenic call [2]: inactive; negative | mutagenic call (Test System: AMES SALMONELLA TYPHIMURIUM, Strain/Indicator: TA100, Metabolic Activation: RAT, LIVER, S-9, AROCLOR 1254 (10%), Method: PREINCUBATION): inactive; negative | mutagenic call (Test System: AMES SALMONELLA TYPHIMURIUM, Strain/Indicator: TA1535, Metabolic Activation: HAMSTER, LIVER, S-9, AROCLOR 1254 (10%), Method: PREINCUBATION): inactive; negative | mutagenic call [3]: inactive; negative | mutagenic call (Test System: AMES SALMONELLA TYPHIMURIUM, Strain/Indicator: TA1535, Metabolic Activation: RAT, LIVER, S-9, AROCLOR 1254 (10%), Method: PREINCUBATION): inactive; negative | mutagenic call (Test System: AMES SALMONELLA TYPHIMURIUM, Strain/Indicator: TA1537, Metabolic Activation: HAMSTER, LIVER, S-9, AROCLOR 1254 (10%), Method: PREINCUBATION): active; positive | mutagenic call [4]: inactive; negative | mutagenic call (Test System: AMES SALMONELLA TYPHIMURIUM, Strain/Indicator: TA1537, Metabolic Activation: RAT, LIVER, S-9, AROCLOR 1254 (10%), Method: PREINCUBATION): active; positive

COC(=O)CC(=O)OC
mutagenic call [1]: inactive; negative | mutagenic call (Test System: AMES SALMONELLA TYPHIMURIUM, Strain/Indicator: TA98, Metabolic Activation: RAT LIVER S-9, PHENOBARBITAL AND BETA-NAPHTHOFLAVONE, Method: PREINCUBATION): inactive; negative | mutagenic call [2]: inactive; negative | mutagenic call (Test System: AMES SALMONELLA TYPHIMURIUM, Strain/Indicator: TA100, Metabolic Activation: RAT LIVER S-9, PHENOBARBITAL AND BETA-NAPHTHOFLAVONE, Method: PREINCUBATION): inactive; negative | mutagenic call [3]: inactive; negative | mutagenic call (Test System: AMES SALMONELLA TYPHIMURIUM, Strain/Indicator: TA1535, Metabolic Activation: RAT LIVER S-9, PHENOBARBITAL AND BETA-NAPHTHOFLAVONE, Method: PREINCUBATION): inactive; negative | mutagenic call [4]: inactive; negative | mutagenic call (Test System: AMES SALMONELLA TYPHIMURIUM, Strain/Indicator: TA1537, Metabolic Activation: RAT LIVER S-9, PHENOBARBITAL AND BETA-NAPHTHOFLAVONE, Method: PREINCUBATION): inactive; negative | mutagenic call (Test System: E.COLI, Strain/Indicator: WP2UVRA/PKM101, Metabolic Activation: NONE, Method: PREINCUBATION): inactive; negative | mutagenic call (Test System: E.COLI, Strain/Indicator: WP2UVRA/PKM101, Metabolic Activation: RAT LIVER S-9, PHENOBARBITAL AND BETA-NAPHTHOFLAVONE, Method: PREINCUBATION): inactive; negative

C=CCN(CC=C)C1c2ccccc2-c2ccccc2C1N1C2c3ccccc3-c3ccccc3C21 (stereo not given)
mutagenic call [5]: inactive; negative

O=CNc1nc(-c2ccc([N+](=O)[O-])cc2)cs1
mutagenic call (Test System: AMES SALMONELLA TYPHIMURIUM, Strain/Indicator: TA98, Metabolic Activation: RAT, LIVER, S-9, KC500 OR PHENOBARBITAL, Method: LIQUID SUSPENSION): active; positive | mutagenic call (Test System: AMES SALMONELLA TYPHIMURIUM, Strain/Indicator: TA100, Metabolic Activation: RAT, LIVER, S-9, KC500 OR PHENOBARBITAL, Method: LIQUID SUSPENSION): active; positive

CCCCC(CC)COP(=O)(OCC(CC)CCCC)OCC(CC)CCCC (stereo not given)
mutagenic call (End Point: IN VITRO CHROMOSOMAL ABERRATIONS, Test System: CHO CELLS, Metabolic Activation: NONE): inactive; negative | mutagenic call (End Point: IN VITRO CHROMOSOMAL ABERRATIONS, Test System: CHO CELLS, Metabolic Activation: RAT, LIVER, S-9, AROCLOR 1254): inactive; negative | mutagenic call (Test System: AMES SALMONELLA TYPHIMURIUM, Strain/Indicator: TA98, Metabolic Activation: HAMSTER, LIVER, S-9, AROCLOR 1254, Method: STANDARD PLATE): inactive; negative | mutagenic call (Test System: AMES SALMONELLA TYPHIMURIUM, Strain/Indicator: TA98, Metabolic Activation: NONE, Method: STANDARD PLATE): inactive; negative | mutagenic call (Test System: AMES SALMONELLA TYPHIMURIUM, Strain/Indicator: TA98, Metabolic Activation: RAT, LIVER, S-9, AROCLOR 1254, Method: STANDARD PLATE): inactive; negative | mutagenic call (Test System: AMES SALMONELLA TYPHIMURIUM, Strain/Indicator: TA100, Metabolic Activation: HAMSTER, LIVER, S-9, AROCLOR 1254, Method: STANDARD PLATE): inactive; negative | mutagenic call [5]: inactive; negative | mutagenic call (Test System: AMES SALMONELLA TYPHIMURIUM, Strain/Indicator: TA100, Metabolic Activation: RAT, LIVER, S-9, AROCLOR 1254, Method: STANDARD PLATE): inactive; negative | mutagenic call (Test System: AMES SALMONELLA TYPHIMURIUM, Strain/Indicator: TA1535, Metabolic Activation: HAMSTER, LIVER, S-9, AROCLOR 1254, Method: STANDARD PLATE): inactive; negative | mutagenic call (Test System: AMES SALMONELLA TYPHIMURIUM, Strain/Indicator: TA1535, Metabolic Activation: NONE, Method: STANDARD PLATE): inactive; negative | mutagenic call (Test System: AMES SALMONELLA TYPHIMURIUM, Strain/Indicator: TA1535, Metabolic Activation: RAT, LIVER, S-9, AROCLOR 1254, Method: STANDARD PLATE): inactive; negative | mutagenic call (Test System: AMES SALMONELLA TYPHIMURIUM, Strain/Indicator: TA1537, Metabolic Activation: HAMSTER, LIVER, S-9, AROCLOR 1254, Method: STANDARD PLATE): inactive; negative | mutagenic call (Test System: AMES SALMONELLA TYPHIMURIUM, Strain/Indicator: TA1537, Metabolic Activation: NONE, Method: STANDARD PLATE): inactive; negative | mutagenic call (Test System: AMES SALMONELLA TYPHIMURIUM, Strain/Indicator: TA1537, Metabolic Activation: RAT, LIVER, S-9, AROCLOR 1254, Method: STANDARD PLATE): inactive; negative

CC(=O)Nc1ccc2c(c1)Cc1cc(NC(C)=O)ccc1-2
mutagenic call (Test System: AMES SALMONELLA TYPHIMURIUM, Strain/Indicator: TA1538, Metabolic Activation: RAT, LIVER, S-9, PHENOBARBITAL, Method: STANDARD PLATE): active; positive
